# Assay results as given in EP0400480A1, “A method for enhancing the cytotoxicity of anthracyclines through photoactivation” (CONSIGLIO NAZIONALE DELLE RICERCHE, priority 1989, dated 1990).
# What was measured:
# FRT L5 cells [1] = assay: Cell survival of FRT L5 cells relative to non-irradiated culture after incubation with 595 nm irradiation (Examples 2 and 3); format: cell-based, Fisher Rat; conditions: 1000 ng/ml
# Protocol: Following the method of Example 1, FRT L5 cells were resuspended, distributed in dishes and incubated for 72 hrs. At this point 5-ID was introduced in the dishes in an amount such as to have a concentration in the medium of 1000 ng/ml and the dishes were incubated for 2 hrs. During this period the various dishes were irradiated with red light of 595 nm with constant radiation density on the dish of an average of 34 mW/cm² for times of from 15 to 120 minutes.
# Each irradiation period was selected so that its termination coincided with the incubation end.
# The average dose of light administered on the dish in 120 minutes was 245 J/cm².
# 2, in which the percentage of cell survival refferred to a non-irradiated culture is represented as a function of the light dose in J/cm².
# Example 2 was repeated, except that each dish was irradiated for only 15 minute during the 2 hr incubation with 5-ID.
# Said 15 minute irradiations were started with increasing delays with respect to the start of the incubation, and precisely with delays of 0,15, 30, 45, 60, 75, 90 and 105 minutes.
# The results are reported in figure 3, in which the percentage cell survival, with respect to non- irradiated cultures, is reported as a function of the delay from the irradiation start with respect to the start of the incubation with 5-ID.
# FRT L5 cells [2] = assay: Growth curve (count of vital cells) of FRT L5 cells after 2 hr incubation with or without 595 nm irradiation (Example 1); format: cell-based, Fisher Rat; conditions: 50 ng/ml, irradiation 595 nm 245 J/cm², curve (f) compared with non-irradiated curve (b)
# Protocol: A culture of Fisher Rat Thyroid cells classified as FRT L5 was performed routinely in Petri dishes in a Ham F-12 medium modified by Coon (K.C. Biological Co.) with addition of 5% calf serum (Grand Island Biological Co.) by incubation at 37°C in an atmosphere with 5% CO₂.
# For determining the growth curve a suitable number of the colture Petri dishes was trypsinized and the cells were re-suspended in growth medium in such a way as to have a cell concentration of appoximately 10⁶/ml. Suspension volumes containing a number of cells of the order of 10⁵ were poured into dishes of 60 mm diameter and covered with 3 ml culture medium, maintaining the cell suspension under stirring in order to have a uniform cell distribution in the various dishes.
# The dishes were put in an incubator for 24 hrs and then incubated for 2 hrs with fresh reaction medium containing […] (5-ID).
# 5-iminodaunomicin was prepared in a 1.78.10⁻⁵M solution in dejonized bidistilled water and was added to the various dishes in such amounts as to have concentrations of 0,50, 200, 400 and 1000 ng/ml. Incubation of these dishes was performed in the dark while at the same time a dish prepared in the same way and having a 5-iminodaunomicin concentration of 50 ng/ml was incubated under red light radiation of 595 nm wave length. […]
smiles,measurement,setting,value
"COc1cccc2c1C(=N)c1c(O)c3c(c(O)c1C2=O)C[C@@](O)(C(C)=O)C[C@@H]3O[C@H]1C[C@H](N)[C@H](O)[C@H](C)O1 [5-ID, 5-iminodaunomicin]",lethal effect (cell survival referred to a non-irradiated culture),"FRT L5 cells [1]; 2 hr incubation, irradiation 595 nm, 34 mW/cm², short time (ca. 30 minutes)",high lethal effect
same,effect of incubation without irradiation,"FRT L5 cells [1]; without irradiation, short time, see curve (e) of figure 1",does not have a measurable effect
same,lowering the number of vital cell,FRT L5 cells [2],one order of magnitude
